Data from patent US20170252338A1, “MEDICINE” (KOWA COMPANY, LTD., priority 2014, published 2017).

Tests used:
[1] = system: LDL cholesterol in blood plasma; assay: Evaluation of combined use of statin and CETP inhibitor: blood plasma LDL cholesterol after two weeks oral administration in guinea pigs; format: in vivo, guinea pigs (Slc: Hartley); conditions: for Plasma LDL cholesterol lowering ratio / Amount of LDL cholesterol in blood plasma: oral, two weeks; for Amount of LDL cholesterol in blood plasma: male guinea pigs, average ± standard deviation
Procedure: Male guinea pigs (six weeks old, Slc: Hartley, Japan SLC, Inc.) were used for the experiment. Blood was collected from the jugular vein, and the guinea pigs were grouped on the basis of the total plasma cholesterol level and body weight.
After completion of repeated administration, blood was collected under anesthesia with pentobarbital, and the amount of LDL cholesterol in blood plasma (mg/dl. Hereinafter, described as “amount of LDL cholesterol in blood plasma”) was measured using high performance liquid chromatography according to the method by Usui, et al. (Usui et al., Clin. Chem., 46, 63-72 (2000)).
The group configuration consisted of the following four items, and six guinea pigs were used for each group.
(2) Pitavastatin single administration group: Pitavastatin calcium pentahydrate was orally administered at a dose of 1 mg/kg of body weight.
The amount of LDL cholesterol in blood plasma was obtained as an average value ±standard deviation.
Furthermore, the proportions of lowering of LDL cholesterol in blood plasma in the various drug administration groups (“plasma LDL cholesterol lowering ratios”) were calculated by the expression described below, from the average values of the amounts of LDL cholesterol in blood plasma of the control group and the various drug administration groups.
Plasma LDL cholesterol lowering ratio (%)=[(Cc−Ct)/Cc]×100
wherein Cc represents the average value of the amount of LDL cholesterol in blood plasma in the control group; and Ct represents the average value of the amount of LDL cholesterol in blood plasma of each of the various drug administration groups.
Furthermore, the average values of the amounts of LDL cholesterol in blood plasma of each of the various drug administration groups in a case in which the average value of the amount of LDL cholesterol in blood plasma of the control group was designated as 1, were calculated as relative indices.
Furthermore, determination of a synergistic effect according to Bulge formula was implemented.

[2] = Thermal stability test (residual ratio by HPLC after storage in glass bottles); format: physicochemical; conditions: for Residual ratio (%) After storage at 80° C. for 72 hours / Residual ratio (%) After storage at 100° C. for 24 hours / Residual ratio (%) After storage at 120° C. for 16 hours: glass bottles, HPLC area percentage
Procedure: A test compound was introduced into glass bottles, and the bottles were stored for certain time periods under temperature conditions of 80° C., 100° C., or 120° C. Subsequently, the residual ratio (%) of the pyrimidine compound (1) in the test compound was measured. Regarding the residual ratio, the proportion of the pyrimidine compound (1) contained in the test compound was measured as the peak area percentage using high performance liquid chromatography. In regard to the measurement by high performance liquid chromatography, an ODS column was used as a column, and a mixture of two kinds, namely, a 0.1% aqueous solution of TFA and a 0.1% acetonitrile solution of TFA, was used as a solvent. The detection wavelength was 242 nm. The residual ratio was calculated by the following calculation expression from the area percentage of the pyrimidine compound (1) thus obtained. Residual ratio (%)=Area percentage of pyrimidine compound (1) after storage/area percentage of pyrimidine compound (1) before storage×100 As the test compound, the crystals (crystals of pyrimidine compound (1) hydrochloride) obtained in Reference Example 1-3, and the free form of the pyrimidine compound (1) were used.

[3] = Test Example 1-1, [(Cc−Ct)/Cc]×100 vs control group, pitavastatin 1 mg/kg, pyrimidine compound (1) 30 mg/kg
[4] = Test Example 1-1, average plasma LDL cholesterol with control group designated as 1, pitavastatin 1 mg/kg, pyrimidine compound (1) 30 mg/kg
[5] = Test Example 1-1, pitavastatin calcium pentahydrate 1 mg/kg, pyrimidine compound (1) monohydrochloride 30 mg/kg, six per group, control 22.4 ± 2.9
[6] = Test Example 1-2, control group designated as 1, pitavastatin 1 mg/kg, anacetrapib 30 mg/kg
[7] = Test Example 1-2, pitavastatin 1 mg/kg, anacetrapib 30 mg/kg, control 18.5 ± 4.8
[8] = Test Example 1-2, vs control group, pitavastatin 1 mg/kg, anacetrapib 30 mg/kg

| SMILES | Plasma LDL cholesterol lowering ratio [1, 3] [%] | Relative index [1, 4] | Amount of LDL cholesterol in blood plasma [1, 5] [mg/dL] | Relative index [1, 6] | Amount of LDL cholesterol in blood plasma [1, 7] [mg/dL] | Plasma LDL cholesterol lowering ratio [1, 8] [%] | Residual ratio (%) After storage at 80° C. for 72 hours [2] [%] | Residual ratio (%) After storage at 100° C. for 24 hours [2] [%] | Residual ratio (%) After storage at 120° C. for 16 hours [2] [%] | Thermal stability ([2]; conclusion from Table 10) |
| --- | --- | --- | --- | --- | --- | --- | --- | --- | --- | --- |
| O=C(O)C[C@H](O)C[C@H](O)/C=C/c1c(C2CC2)nc2ccccc2c1-c1ccc(F)cc1 [Pitavastatin, (+)-monocalcium is[(3R,5S,6E)-7-[2-cyclopropyl-4-(4-fluorophenyl)-3-quinolyl]-3,5-dihydroxy-6-heptenoate}] | 31 | 0.69 | 15.5 ± 3.9 | 0.62 | 11.5 ± 3.3 | 38 | – | – | – | – |
| CCN(C[C@H]1CC[C@H](CC(=O)O)CC1)c1ccc(C(F)(F)F)cc1CN(c1ncc(OCCS(C)(=O)=O)cn1)[C@@H](C)c1cc(C(F)(F)F)cc(C(F)(F)F)c1.Cl [(S)-trans-{4-[({2-[({1-[3,5-bis(trifluoromethyl)phenyl]ethyl}{5-[2-(methylsulfonyl)ethoxy]pyrimidin-2-yl}amino)methyl]-4-(trifluoromethyl)phenyl}(ethyl)amino)methyl]cyclohexyl}acetic acid hydrochloride] | – | – | – | – | – | – | 100.0 | 100.0 | 99.5 | excellent thermal stability |
| COc1cc(F)c(C(C)C)cc1-c1ccc(C(F)(F)F)cc1CN1C(=O)O[C@H](c2cc(C(F)(F)F)cc(C(F)(F)F)c2)[C@@H]1C [Anacetrapib] | – | – | – | 0.98 | 18.2 ± 4.1 | 2 | – | – | – | – |
| CCN(C[C@H]1CC[C@H](CC(=O)O)CC1)c1ccc(C(F)(F)F)cc1CN(c1ncc(OCCS(C)(=O)=O)cn1)[C@@H](C)c1cc(C(F)(F)F)cc(C(F)(F)F)c1 [Pyrimidine compound (1), (S)-trans-{4-[({2-[({1-[3,5-bis(trifluoromethyl)phenyl]ethyl}{5-[2-(methylsulfonyl)ethoxy]pyrimidin-2-yl}amino)methyl]-4-(trifluoromethyl)phenyl}(ethyl)amino)methyl]cyclohexyl}acetic acid] | 16 | 0.84 | 18.9 ± 3.8 | – | – | – | – | – | – | – |
| CCN(C[C@H]1CC[C@H](CC(=O)O)CC1)c1ccc(C(F)(F)F)cc1CN(c1ncc(OCCS(C)(=O)=O)cn1)[C@@H](C)c1cc(C(F)(F)F)cc(C(F)(F)F)c1 [Free form of pyrimidine compound (1), (S)-trans-{4-[({2-[({1-[3,5-bis(trifluoromethyl)phenyl]ethyl}{5-[2-(methylsulfonyl)ethoxy]pyrimidin-2-yl}amino)methyl]-4-(trifluoromethyl)phenyl}(ethyl)amino)methyl]cyclohexyl}acetic acid] | – | – | – | – | – | – | 99.5 | 89.3 | 71.5 | – |
